US8435978B2, “Substituted sulfonamide compounds” (Gruenenthal GmbH, priority 2006, dated 2013)

Experiments:
[1] = molecular target: T1, human B1R receptor (Homo sapiens, UniProt P46663); experiment: Functional study on the bradykinin receptor 1 (B1R), FLIPR Ca2+ assay, hB1R cells; format: cell-based; settings: agonist Lys-Des-Arg9-bradykinin 0.5 nM, % inhibition compared with the maximum achievable inhibition; for inhibition at 10 µM: CHO-K1, test substance 10 μM, read-out: B1R Antagonism, human [10 μM] % Inhibition; for B1R Antagonism, human [10 μM] % Inhibition: test substance 10 μM, hB1R CHO K1 cells
T1 construct: host or cells: CHO K1 cells (Chinese hamster ovary), stably transfected
T1 sequence (P46663 1-353): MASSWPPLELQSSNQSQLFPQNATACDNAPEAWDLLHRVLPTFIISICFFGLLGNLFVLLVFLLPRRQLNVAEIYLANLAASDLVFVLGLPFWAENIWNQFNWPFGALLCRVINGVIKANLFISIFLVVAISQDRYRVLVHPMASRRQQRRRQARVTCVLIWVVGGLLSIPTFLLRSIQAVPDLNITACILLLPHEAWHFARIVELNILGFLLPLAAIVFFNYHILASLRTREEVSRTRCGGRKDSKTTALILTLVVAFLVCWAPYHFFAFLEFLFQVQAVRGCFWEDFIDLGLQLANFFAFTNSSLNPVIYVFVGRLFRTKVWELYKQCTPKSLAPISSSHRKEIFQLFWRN
Outline: (§1)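 FLIPR Ca2+ read-out (Fluo-4, peak fluorescence) in stably transfected CHO K1 cells. Compounds at 10 μM, then 10 min later agonist challenge: human B1R with Lys-Des-Arg9-bradykinin 0.5 nM, rat B1R with Des-Arg9-bradykinin 100 nM; reported as % activation or % of maximal inhibition.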

[2] = molecular target: T2, B1R receptor of the rat (Rattus norvegicus, UniProt P97583); experiment: Functional study on the bradykinin receptor 1 (B1R), FLIPR Ca2+ assay, rB1R cells; format: cell-based; settings: agonist Des-Arg9-bradykinin 100 nM, % inhibition compared with the maximum achievable inhibition; for inhibition at 10 µM: CHO-K1, test substance 10 μM, read-out: B1R Antagonism, rat [10 μM] % Inhibition; for B1R Antagonism, rat [10 μM] % Inhibition: test substance 10 μM, rB1R CHO K1 cells
T2 construct: host or cells: CHO K1 cells (Chinese hamster ovary), stably transfected
T2 sequence (P97583 1-337): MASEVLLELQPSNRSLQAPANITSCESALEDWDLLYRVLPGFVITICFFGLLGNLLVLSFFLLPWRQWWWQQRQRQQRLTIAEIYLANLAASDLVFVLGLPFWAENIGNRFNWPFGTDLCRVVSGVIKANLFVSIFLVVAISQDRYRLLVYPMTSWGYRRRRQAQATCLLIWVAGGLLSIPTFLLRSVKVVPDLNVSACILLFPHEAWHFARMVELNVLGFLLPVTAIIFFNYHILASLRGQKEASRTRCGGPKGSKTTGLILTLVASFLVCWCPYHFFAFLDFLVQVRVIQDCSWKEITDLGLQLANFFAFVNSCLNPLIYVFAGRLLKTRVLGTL
Outline: as §1

[3] = tested on: formalin-induced pain behavior; experiment: Formalin test in the mouse (phase 2, chronic pain component); format: in vivo; settings: iv, 5 min. before formalin injection, observation 21 to 24 minutes after formalin
Protocol: The formalin test (Dubuisson, D. and Dennis, S. G., 1977, Pain, 4, 161-174) represents a model for both acute and chronic pain. By means of a single formalin injection into the dorsal side of a rear paw, a biphasic nociceptive reaction is induced in freely mobile test animals; the reaction is detected by observing three behaviour patterns which are clearly distinguishable from one another. The reaction is two-phase: phase 1=immediate reaction (duration up to 10 min., shaking of the paw, licking), phase 2=late reaction (after a rest phase; likewise shaking of the paw, licking; duration up to 60 min.). The 1st phase reflects a direct stimulation of the peripheral nocisensors with high spinal nociceptive input (acute pain phase); the 2nd phase reflects a spinal and peripheral hypersensitization (chronic pain phase). In the studies described here, the chronic pain component (phase 2) has been evaluated. Formalin in a volume of 20 μl and a concentration of 1% is administered subcutaneously into the dorsal side of the right rear paw of each animal. The specific changes in behavior, such as lifting, shaking or licking of the paw (score 3, Dubuisson & Dennis, 1977), are observed and recorded in the observation period of 21 to 24 minutes following the formalin injection. The behaviour of the animals after administration of the substance (n=10 per dose of substance) was compared with a control group which received vehicle (n=10). Based on the quantification of the pain behavior, the action of the substance in the formalin test was determined as the change in percent compared with the control. The ED50 calculations (ED50=mean effective dose) were carried out by regression analysis according to the method of Litchfield and Wilcoxon (Litchfield, J. T., Wilcoxon, J. J., 1949, J. Pharmacol. Exp. Ther. 96, 99-113). The time of administration before the formalin injection was chosen in dependence on the mode of administration of the compounds according to the invention (intravenous: 5 min.).

Molecule	inhibition at 10 µM [1]	inhibition at 10 µM [2]	ED50 [3]	B1R Antagonism, human [10 μM] % Inhibition [1]	B1R Antagonism, rat [10 μM] % Inhibition [2]
COc1cc(C)c(S(=O)(=O)N2CCCCC2COCC(=O)N2CCN(C3CCN(C)CC3)CC2)c(C)c1.Cl.Cl (centres unmarked) [Example 97, 2-((1-(4-methoxy-2,6-dimethylphenylsulfonyl)piperidin-2-yl)methoxy)-1-(4-(1-methylpiperidin-4-yl)piperazin-1-yl)ethanone dihydrochloride]	98%	98.2%	13.3 mg/kg	–	–
COc1cc(C)c(S(=O)(=O)N2CCCCC2COCC(=O)N2CCC(N3CCN4CCCCC4C3)CC2)c(C)c1 (centres unmarked) [Example 98, 1-(4-(dihydro-1H-pyrido[1,2-a]pyrazin-2(6H,7H,8H,9H,9aH)-yl)piperidin-1-yl)-2-((1-(4-methoxy-2,6-dimethylphenylsulfonyl)piperidin-2-yl)methoxy)ethanone]	104%	101%	13.6 mg/kg	–	–
COc1cc(C)c(S(=O)(=O)N2CCCCC2COCC(=O)N(C)Cc2ccc(C3=NCCN3)cc2)c(C)c1.Cl (centres unmarked) [Example 193, N-(4-(4,5-dihydro-1H-imidazol-2-yl)benzyl)-2-((1-(4-methoxy-2,6-dimethylphenylsulfonyl)piperidin-2-yl)methoxy)-N-methylacetamide hydrochloride]	104%	98.3%	2.59 mg/kg	–	–
CN(C)CCCN1CCN(C(=O)COCC2CCCN2S(=O)(=O)c2c(Cl)cc(C(F)(F)F)cc2Cl)CC1 (centres unmarked) [Example 569, 2-((1-(2,6-dichloro-4-(trifluoromethyl)phenylsulfonyl)pyrrolidin-2-yl)methoxy)-1-(4-(3-(dimethylamino)propyl)piperazin-1-yl)ethanone]	90%	92.9%	–	–	–
CN1CCC(N2CCN(C(=O)COCC3CCCN3S(=O)(=O)c3c(Cl)cc(C(F)(F)F)cc3Cl)CC2)CC1 (centres unmarked) [Example 570, 2-((1-(2,6-dichloro-4-(trifluoromethyl)phenylsulfonyl)pyrrolidin-2-yl)methoxy)-1-(4-(1-methylpiperidin-4-yl)piperazin-1-yl)ethanone]	97.7%	98.1%	–	–	–
CN1CCC(N2CCN(C(=O)COCC3CCCCN3S(=O)(=O)c3ccccc3C(F)(F)F)CC2)CC1 (centres unmarked) [Example 571, 1-(4-(1-methylpiperidin-4-yl)piperazin-1-yl)-2-((1-(2-(trifluoromethyl)phenylsulfonyl)piperidin-2-yl)methoxy)ethanone]	104%	100%	–	–	–
CN(C)c1ccc(CNC(=O)COCC2CCCN2S(=O)(=O)c2c(Cl)cc(Cl)cc2Cl)cc1 (centres unmarked) [Example 575, N-(4-(dimethylamino)benzyl)-2-((1-(2,4,6-trichlorophenylsulfonyl)pyrrolidin-2-yl)methoxy)acetamide]	23.4%	96.8%	–	–	–
COc1cc(C)c(S(=O)(=O)N2CCCC2COCC(=O)NCc2ccc(N(C)C)cc2)c(C)c1 (centres unmarked) [Example 576, N-(4-(dimethylamino)benzyl)-2-((1-(4-methoxy-2,6-dimethylphenylsulfonyl)pyrrolidin-2-yl)methoxy)acetamide]	1.85%	107%	–	–	–
COc1cc(C)c(S(=O)(=O)N2CCCCC2COCC(=O)NCc2ccc(N(C)C)cc2)c(C)c1 (centres unmarked) [Example 577, N-(4-(dimethylamino)benzyl)-2-((1-(4-methoxy-2,6-dimethylphenylsulfonyl)piperidin-2-yl)methoxy)acetamide]	17.3%	107%	–	–	–
CN(C)c1ccc(CNC(=O)COCC2CCCCN2S(=O)(=O)c2c(Cl)cc(Cl)cc2Cl)cc1 (centres unmarked) [Example 578, N-(4-(dimethylamino)benzyl)-2-((1-(2,4,6-trichlorophenylsulfonyl)piperidin-2-yl)methoxy)acetamide]	8.96%	87.1%	–	–	–
COc1cc(C)c(S(=O)(=O)N2CCCC2COCC(=O)NCc2ccc(N3CCOCC3)cc2)c(C)c1 (centres unmarked) [Example 579, 2-((1-(4-methoxy-2,6-dimethylphenylsulfonyl)pyrrolidin-2-yl)methoxy)-N-(4-morpholinobenzyl)acetamide]	39.4%	107%	–	–	–
O=C(COCC1CCCN1S(=O)(=O)c1c(Cl)cc(Cl)cc1Cl)NCc1ccc(N2CCOCC2)cc1 (centres unmarked) [Example 580, N-(4-morpholinobenzyl)-2-((1-(2,4,6-trichlorophenylsulfonyl)pyrrolidin-2-yl)methoxy)acetamide]	39.1%	88.5%	–	–	–
O=C(COCC1CCCCN1S(=O)(=O)c1c(Cl)cc(Cl)cc1Cl)NCc1ccc(N2CCOCC2)cc1 (centres unmarked) [Example 581, N-(4-morpholinobenzyl)-2-((1-(2,4,6-trichlorophenylsulfonyl)piperidin-2-yl)methoxy)acetamide]	27.5%	76.3%	–	–	–
N-(3-(1H-benzo[d]imidazol-2-yl)propyl)-2-((1-(4-methoxy-2,6-dimethylphenylsulfonyl)piperidin-2-yl)methoxy)acetamide [Example 525]	–	–	–	15.41%	102.31%
N-(4-(2-(1H-benzo[d]imidazol-2-yl)ethyl)phenyl)-2-((1-(4-methoxy-2,6-dimethylphenylsulfonyl)pyrrolidin-2-yl)methoxy)acetamide [Example 472]	–	–	–	92.06%	101.17%
N-(4-(dimethylamino)butyl)-2-((1-(2,4,6-trichlorophenylsulfonyl)pyrrolidin-2-yl)methoxy)acetamide [Example 294]	–	–	–	105.91%	100%
